Source: PMC9458935, “Modulation of type 1 cannabinoid receptor activity by cannabinoid by-products from Cannabis sativa and non-cannabis phytomolecules” (Frontiers in Pharmacology, 2022)
Like-named read-outs stand apart in the source and are kept apart here.

Key:
male C57BL/6 mice [1] = test: Body temperature, rectal thermometer; assay type: in vivo, mouse; details: 15 min post-injection; for body temperature: 10 mg/kg i.p., male mice; for effect on ∆9-THC-dependent change of body temperature: 10 mg/kg phytomolecule + 10 mg/kg ∆9-THC i.p.
Description: (§1) Male C57BL/6 mice between 8 and 12 weeks of age were used for these studies. Animals were group housed at the Laboratory Animal Services Unit (LASU) at the University of Saskatchewan (3 animals/cage) with a standard 12:12 light-dark cycle, ad libitum access to food and water, and environmental enrichment. Compounds were prepared in the vehicle [ethanol and cremophor in saline (1:1:8)] and administered intraperitoneally (i.p.). Catalepsy was assessed in the bar holding assay 5 min after compound administration with animals placed so that their forepaws clasped a 0.7-cm ring clamp 4.5 cm above the surface of the testing space ([Garai et al., 2020]). The length of time the ring was held was recorded up to 60 s (i.e., percent maximum possible effect [MPE] 60 s) with the trial ending if the mouse turned its head or body or made three consecutive escape attempts. Body temperature was measured 15 min after compound administration by using a rectal thermometer. Anti-nociceptive effects were measured in warm water (52 ± 2°C) using the tail-flick test 20 min after compound administration to a maximum of 20 s (i.e., percent maximum possible effect [MPE] 20 s). Compounds were administered at the doses indicated. Experimenters were blinded to treatment for all behavioral assessments and analyses. Animals were purchased, rather than bred, to reduce animal numbers. In all cases, experiments were performed with the approval of the University Animal Care Committee (UACC) at the University of Saskatchewan and in keeping with the guidelines of the Canadian Council on Animal Care (CCAC).

male C57BL/6 mice [2] = test: Catalepsy, bar holding assay; assay type: in vivo, mouse; details: 5 min post-injection; for catalepsy: 10 mg/kg i.p., male mice; for effect on ∆9-THC-dependent catalepsy: 10 mg/kg phytomolecule + 10 mg/kg ∆9-THC i.p.
Description: as §1

hCB1R [3] = target: T1, hCB1R (Homo sapiens, UniProt P21554); test: cell-based; assay type: cell-based
T1 sequence (P21554 whole entry): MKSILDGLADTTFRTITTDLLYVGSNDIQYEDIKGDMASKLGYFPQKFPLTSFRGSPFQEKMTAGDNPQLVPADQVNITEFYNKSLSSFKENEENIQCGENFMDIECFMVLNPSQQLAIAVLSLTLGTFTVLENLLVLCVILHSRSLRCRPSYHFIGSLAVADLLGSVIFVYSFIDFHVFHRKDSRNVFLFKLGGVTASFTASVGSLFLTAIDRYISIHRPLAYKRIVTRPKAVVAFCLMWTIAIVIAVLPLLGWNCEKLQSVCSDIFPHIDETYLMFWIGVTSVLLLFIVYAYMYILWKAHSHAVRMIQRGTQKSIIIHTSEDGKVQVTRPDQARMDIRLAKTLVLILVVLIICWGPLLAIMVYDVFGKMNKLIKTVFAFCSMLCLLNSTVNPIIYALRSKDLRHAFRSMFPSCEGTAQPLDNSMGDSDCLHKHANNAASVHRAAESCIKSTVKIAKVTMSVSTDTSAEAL

hCB1R [4] = target: T1, hCB1R; test: biochemical; assay type: binding
hCB1R [5] = target: T1, hCB1R; test: cell-based; assay type: cell-based; remark: listed apart in the source
male C57BL/6 mice [6] = test: Anti-nociception, warm water tail-flick test; assay type: in vivo, mouse; details: 20 min post-injection; for anti-nociceptive effect, tail-flick: 10 mg/kg i.p., male mice; for effect on ∆9-THC-dependent anti-nociception, tail-flick: 10 mg/kg phytomolecule + 10 mg/kg ∆9-THC i.p.
Description: as §1

[7] = CHO-K1, read-out: βarrestin2 recruitment Emax
[8] = CHO-K1, read-out: cAMP inhibition Emax
[9] = CHO-K1; read-out: βarrestin2 recruitment Emax
[10] = compound alone; 90 min; value with 95% CI; read-out: βarrestin2 recruitment EC50
[11] = CHO-K1; read-out: cAMP inhibition Emax
[12] = co-treatment with 100 nM ∆9-THC
[13] = compound alone; 10 µM forskolin, 90 min; value with 95% CI; read-out: cAMP inhibition EC50

Compound | body temperature (male C57BL/6 mice [1]) | catalepsy (male C57BL/6 mice [2]) | Emax (hCB1R [3]; [7]) | [3H]CP55,940 Emin (hCB1R [4]) | effect on cAMP inhibition by 100 nM ∆9-THC (hCB1R [5]) | Emax (hCB1R [5]; [8]) | anti-nociceptive effect, tail-flick (male C57BL/6 mice [6]) | Emax (hCB1R [3]; [9]) | Ki (hCB1R [4]) | effect on [3H]CP55,940 displacement by 100 nM ∆9-THC (hCB1R [4]) | Emax (hCB1R [5]; [11]) | effect on cAMP inhibition by 100 nM ∆9-THC (hCB1R [5]; [12]) | further results
CCCCCc1cc(O)c2c(c1)OC(C)(C)[C@@H]1CCC(CO)=C[C@@H]21 [11-OH-∆^9-THC] | greater hypothermia | equal catalepsy | 47 ± 9.4% | 70 ± 1.7 % | inhibited the activity of 100 nM ∆^9-THC in a concentration-dependent manner | 28 ± 3.9% | greater hypothermia and anti-nociceptive responses relative to ∆^9-THC |  |  |  |  |  | EC50 (hCB1R [3]): > 10 µM; effect on βarrestin2 recruitment by 100 nM ∆9-THC (hCB1R [3]): elevated βarrestin2 recruitment above the activity of 100 nM ∆^9-THC; EC50 (hCB1R [5]): 0.011 µM
CCCCCc1cc(O)c2c(c1)OC(C)(C)[C@@H]1CC=C(C)C[C@@H]21 [∆^8-THC] | did not produce catalepsy or reduce body temperature | did not produce catalepsy | 21 ± 1.8% | 30 ± 5.0 % | neither ∆^8-THC nor CBN produced a significant change in cAMP inhibition | 56 ± 9.6% | produced an anti-nociceptive effect that was not different from ∆^9-THC |  |  |  |  |  | 
CCCCCc1cc(O)cc(O)c1 [Olivetol, olivetol] |  |  |  | 57 ± 5.5 % |  |  |  | 8.3 ± 2.1% | 0.017 µM | did not significantly alter [^3H]CP55,940 displacement | 5.6 ± 1.6% | did not change the cAMP inhibitory effects of 100 nM ∆^9-THC | EC50 (hCB1R [3]; [10]): > 10 µM; EC50 (hCB1R [5]; [13]): > 10 µM
COc1cc(/C=C/C(=O)CC(=O)/C=C/c2ccc(O)c(OC)c2)ccc1O [Curcumin, curcumin] |  |  |  | 100 ± 2.0 % |  |  |  | 8.9 ± 2.2% | > 10 µM | did not significantly alter [^3H]CP55,940 displacement | 6.2 ± 0.76% | inhibited the activity of 100 nM ∆^9-THC in a concentration-dependent manner | effect on ∆9-THC-dependent change of body temperature (male C57BL/6 mice [1]): capable of blocking ∆^9-THC’s effects on catalepsy and body temperature; effect on ∆9-THC-dependent catalepsy (male C57BL/6 mice [2]): capable of blocking ∆^9-THC’s effects on catalepsy; EC50 (hCB1R [3]; [10]): > 10 µM; EC50 (hCB1R [5]; [13]): > 10 µM; effect on ∆9-THC-dependent anti-nociception, tail-flick (male C57BL/6 mice [6]): blocked ∆^9-THC’s effect in the nociception test
O=C(O[C@@H]1Cc2c(O)cc(O)cc2O[C@@H]1c1cc(O)c(O)c(O)c1)c1cc(O)c(O)c(O)c1 [Egc G, epigallocatechin gallate] |  |  |  | 95 ± 3.4 % |  |  |  | 7.2 ± 0.85% | > 10 µM | augmented the displacement of [^3H]CP55,940 from hCB1R by ∆^9-THC | 5.6 ± 0.52% | inhibited the activity of 100 nM ∆^9-THC in a concentration-dependent manner | EC50 (hCB1R [3]; [10]): > 10 µM; EC50 (hCB1R [5]; [13]): > 10 µM
CCCCCc1cc(O)c2c(c1)OC(C)(C)C1=C2CC(C)CC1 (centres unmarked) [∆^6a,10a-THC] | did not produce catalepsy or reduce body temperature | did not produce catalepsy |  |  |  |  | did not produce such effect |  |  |  |  |  | 
CCCCCCC(C)(C)c1ccc(C2CC(O)CCC2CCCO)c(O)c1 (centres unmarked) [CP55,940, reference compound] |  |  | 100 ± 3.3% | 1.0 ± 4.7% |  | 100 ± 6.2% |  |  |  |  |  |  | 
CCCCCCCCCCCCCCCC(=O)NCCO [PEA, palmitoylethanolamide] |  |  | 5.6 ± 3.3% | 46 ± 5.3 % | augmented the activity of 100 nM ∆^9-THC in a concentration-dependent manner | 26 ± 1.8% |  |  | > 10 µM | did not significantly alter [^3H]CP55,940 displacement |  |  | effect on ∆9-THC-dependent change of body temperature (male C57BL/6 mice [1]): capable of blocking ∆^9-THC’s effects on catalepsy and body temperature; effect on ∆9-THC-dependent catalepsy (male C57BL/6 mice [2]): capable of blocking ∆^9-THC’s effects on catalepsy; concentration at which CB1R- and ∆9-THC-dependent βarrestin2 recruitment was augmented (hCB1R [3]): approximately 1 μM; effect on βarrestin2 recruitment by 100 nM ∆9-THC (hCB1R [3]): slightly increased βarrestin2 recruitment; concentration at which [3H]CP55,940 binding was reduced (hCB1R [4]): exceeding 1 μM; concentration at which CB1R- and ∆9-THC-dependent inhibition of cAMP was augmented (hCB1R [5]): approximately 1 μM; type of agonism in cAMP inhibition (hCB1R [5]): weak partial agonist inhibition of cAMP accumulation; effect on ∆9-THC-dependent anti-nociception, tail-flick (male C57BL/6 mice [6]): did not block the effect
O=C(/C=C/C=C/c1ccc2c(c1)OCO2)N1CCCCC1 [Piperine, piperine] |  |  |  | 37 ± 2.8 % |  |  |  | 7.9 ± 0.97% | > 10 µM | did not significantly alter [^3H]CP55,940 displacement | 5.5 ± 0.63% | did not change the cAMP inhibitory effects of 100 nM ∆^9-THC | EC50 (hCB1R [3]): > 10 µM; EC50 (hCB1R [5]): > 10 µM
CCCCCc1cc(O)c2c(c1)OC(C)(C)c1ccc(C)cc1-2 [CBN, cannabinol] | did not produce catalepsy or reduce body temperature | did not produce catalepsy | 6.9 ± 0.96% | 71 ± 3.1 % | neither ∆^8-THC nor CBN produced a significant change in cAMP inhibition | 64 ± 4.6% | did not produce such effect |  | 0.14 µM |  |  |  | EC50 (hCB1R [3]): > 10 µM; EC50 (hCB1R [5]): 0.049 µM; fold less potent than CP55,940 in cAMP inhibition (hCB1R [5]): ~49 x
O=c1c(O)c(-c2ccc(O)c(O)c2)oc2cc(O)cc(O)c12 [Quercetin, quercetin] |  |  |  |  |  |  |  |  |  |  |  |  | effect on ∆9-THC-dependent change of body temperature (male C57BL/6 mice [1]): capable of blocking ∆^9-THC’s effects on catalepsy and body temperature; effect on ∆9-THC-dependent catalepsy (male C57BL/6 mice [2]): capable of blocking ∆^9-THC’s effects on catalepsy; effect on ∆9-THC-dependent anti-nociception, tail-flick (male C57BL/6 mice [6]): blocked ∆^9-THC’s effect in the nociception test
